Data set [1] has as its target T1, FLT3 (Homo sapiens, UniProt P36888).
T1 construct: purchased Reaction Biology Corporation
T1 sequence (P36888 27-993): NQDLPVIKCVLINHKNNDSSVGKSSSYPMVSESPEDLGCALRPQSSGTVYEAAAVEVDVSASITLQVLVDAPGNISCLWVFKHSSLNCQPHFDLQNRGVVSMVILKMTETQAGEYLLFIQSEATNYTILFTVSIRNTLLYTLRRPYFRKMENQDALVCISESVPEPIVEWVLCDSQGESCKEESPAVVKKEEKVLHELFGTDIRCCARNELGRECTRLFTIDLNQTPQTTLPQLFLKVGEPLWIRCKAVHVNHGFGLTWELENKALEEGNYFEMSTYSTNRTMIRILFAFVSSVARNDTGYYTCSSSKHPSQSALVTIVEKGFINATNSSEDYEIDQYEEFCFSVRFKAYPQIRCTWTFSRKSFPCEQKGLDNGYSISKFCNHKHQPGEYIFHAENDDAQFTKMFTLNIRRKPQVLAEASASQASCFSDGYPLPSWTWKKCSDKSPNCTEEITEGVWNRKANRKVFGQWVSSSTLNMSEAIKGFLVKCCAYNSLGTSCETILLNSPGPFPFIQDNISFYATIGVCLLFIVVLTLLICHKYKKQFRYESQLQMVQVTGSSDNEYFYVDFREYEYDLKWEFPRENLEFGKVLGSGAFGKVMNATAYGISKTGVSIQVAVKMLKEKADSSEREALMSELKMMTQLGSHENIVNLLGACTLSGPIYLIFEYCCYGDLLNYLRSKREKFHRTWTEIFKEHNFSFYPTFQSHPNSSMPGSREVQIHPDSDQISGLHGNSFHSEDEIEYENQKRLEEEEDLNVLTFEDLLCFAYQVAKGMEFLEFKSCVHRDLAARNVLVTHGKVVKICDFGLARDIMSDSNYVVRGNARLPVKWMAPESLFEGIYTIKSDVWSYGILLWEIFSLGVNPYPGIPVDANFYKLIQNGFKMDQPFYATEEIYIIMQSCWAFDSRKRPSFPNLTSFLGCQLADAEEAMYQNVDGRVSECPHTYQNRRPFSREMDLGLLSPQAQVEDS
As to the kind of experiment: Kinase screening, HotSpot assay (Reaction Biology). The format is biochemical. As for the experimental part: Kinase screening was performed using a “HotSpot” assay platform method by Reaction Biology Corporation. The reaction buffer used herein contained 20 mM HEPES (pH 7.5), 10 mM MgCl2, 1 mM EGTA, 0.02% Brij35, 0.02 mg/mL BSA, 0.1 mM Na3VO4, 2 mM DTT and 1% DMSO. The required cofactors were added in accordance with the kinase reaction. Freshly made buffer and cofactors were added at a concentration of 20 μM during the selected enzyme reaction. A solution of the test compound in dimethylsulfoxide (DMSO) was added at a suitable concentration to this solution.

For data set [2], the system named is CHO-K1. The experiment in a line: Cytotoxicity test (cell counting kit-8). The data set is classed as cell-based, Chinese hamster. Particulars: Cricetulus griseus, WST-8. The text has this: Cell counting kit-8 assay is a general test method for identifying cell viability using a pale yellow tetrazolium salt called “WST-8”. WST-8, which is soluble in water, is degraded by a dehydrogenase present in the cells, forming orange formazan. Formazan dye is formed by dehydrogenase activity proportional to the number of viable cells, and thus can be used as an indicator for cell viability. The Hill equation of Graphpad Prism was used for analysis.
On the technique in general: Tetrazolium dyes change colour on reduction, which living cells bring about.

Data set [3] addresses hERG K+ channel (Homo sapiens, UniProt Q12809). As to the kind of experiment: hERG K+ channel binding assay (fluorescence polarization). Here is the method:
The hERG tracer and membranes were dissolved at room temperature before use, the tracer and hERG assay buffer were diluted at 1:62.5 and a test substance was diluted to 40 μM with assay buffer. 5 μL of the test substance, a positive control (astemizole or E-4031) and a negative control (DMSO) were dispensed into a 384-well plate, the membranes are dispensed at 10 μL using a multi-pipette and 5 μl of the tracer was dispensed. The light was blocked and incubated at 25° C. for 2 to 3 hours. Then, polarization was measured using a TECAN plate reader (Infinite M1000 pro).

The target of data set [4] is T2, JAK2(V617F) (Homo sapiens, UniProt O60674, V617F).
T2 construct: purchased Reaction Biology Corporation
The experiment in a line: Kinase screening, HotSpot assay (Reaction Biology). The format is biochemical. As for the experimental part:
(§1) Kinase screening was performed using a “HotSpot” assay platform method by Reaction Biology Corporation. The reaction buffer used herein contained 20 mM HEPES (pH 7.5), 10 mM MgCl2, 1 mM EGTA, 0.02% Brij35, 0.02 mg/mL BSA, 0.1 mM Na3VO4, 2 mM DTT and 1% DMSO. The required cofactors were added in accordance with the kinase reaction. Freshly made buffer and cofactors were added at a concentration of 20 μM during the selected enzyme reaction. A solution of the test compound in dimethylsulfoxide (DMSO) was added at a suitable concentration to this solution. In order to initiate reaction, […] (specific activity […]) was added and incubated at room temperature for 2 hours. The test compound was screened at a starting concentration of 20 μM in a 10-dose IC50 mode. IC50 of Staurosporine used as a control drug was obtained at a starting concentration of 20 μM in a 10-dose IC50 mode.

Data set [5] addresses T3, ACK1 (Homo sapiens, UniProt Q07912).
T3 construct: purchased Reaction Biology Corporation
The experiment in a line: Kinase screening, HotSpot assay (Reaction Biology). The format is biochemical. Here is the method: as §1

The subject of data set [6] is Ba/F3 parental. The experiment in a line: Ba/F3 parental growth inhibition. Particulars: Mus musculus, BaF3; Ba/F3 parental cells. The data set is classed as cell-based.
The test system of data set [7] is Ba/F3 FLT3-ITD. The experiment in a line: Ba/F3 FLT3-ITD growth inhibition. The following applies: Ba/F3 FLT3-ITD cells. The format is cell-based.

Chain of hERG K+ channel (Q12809 whole entry): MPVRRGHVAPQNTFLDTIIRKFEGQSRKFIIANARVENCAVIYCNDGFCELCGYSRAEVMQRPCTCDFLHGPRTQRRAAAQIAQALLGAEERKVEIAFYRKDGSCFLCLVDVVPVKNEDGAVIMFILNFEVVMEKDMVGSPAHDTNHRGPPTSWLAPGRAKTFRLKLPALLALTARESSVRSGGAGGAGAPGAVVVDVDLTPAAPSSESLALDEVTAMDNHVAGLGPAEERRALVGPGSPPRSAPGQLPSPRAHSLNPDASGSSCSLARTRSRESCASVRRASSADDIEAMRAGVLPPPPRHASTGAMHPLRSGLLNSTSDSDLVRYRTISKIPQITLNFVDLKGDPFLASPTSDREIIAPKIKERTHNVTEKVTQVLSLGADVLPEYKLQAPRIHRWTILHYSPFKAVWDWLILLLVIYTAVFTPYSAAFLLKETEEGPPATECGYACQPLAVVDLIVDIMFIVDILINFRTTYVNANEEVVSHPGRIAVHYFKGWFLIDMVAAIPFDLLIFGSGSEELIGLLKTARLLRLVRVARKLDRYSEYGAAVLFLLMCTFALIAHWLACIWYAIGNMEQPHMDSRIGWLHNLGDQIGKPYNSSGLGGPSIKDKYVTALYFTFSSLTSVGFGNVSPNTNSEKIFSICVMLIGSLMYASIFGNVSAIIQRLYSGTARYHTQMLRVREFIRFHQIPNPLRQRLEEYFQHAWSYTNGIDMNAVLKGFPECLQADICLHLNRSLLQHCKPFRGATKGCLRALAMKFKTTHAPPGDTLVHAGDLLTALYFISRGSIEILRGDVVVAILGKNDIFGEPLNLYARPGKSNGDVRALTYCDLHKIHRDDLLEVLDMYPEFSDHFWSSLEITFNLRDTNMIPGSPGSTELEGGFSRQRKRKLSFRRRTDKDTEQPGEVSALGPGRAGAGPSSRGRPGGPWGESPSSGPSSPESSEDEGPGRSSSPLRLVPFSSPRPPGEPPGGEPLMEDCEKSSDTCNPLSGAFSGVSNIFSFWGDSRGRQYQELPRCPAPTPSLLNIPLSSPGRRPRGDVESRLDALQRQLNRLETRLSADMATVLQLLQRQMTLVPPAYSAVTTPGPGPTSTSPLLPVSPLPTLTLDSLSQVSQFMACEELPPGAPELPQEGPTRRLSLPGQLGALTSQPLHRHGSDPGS
T2 sequence (O60674 whole entry V617F): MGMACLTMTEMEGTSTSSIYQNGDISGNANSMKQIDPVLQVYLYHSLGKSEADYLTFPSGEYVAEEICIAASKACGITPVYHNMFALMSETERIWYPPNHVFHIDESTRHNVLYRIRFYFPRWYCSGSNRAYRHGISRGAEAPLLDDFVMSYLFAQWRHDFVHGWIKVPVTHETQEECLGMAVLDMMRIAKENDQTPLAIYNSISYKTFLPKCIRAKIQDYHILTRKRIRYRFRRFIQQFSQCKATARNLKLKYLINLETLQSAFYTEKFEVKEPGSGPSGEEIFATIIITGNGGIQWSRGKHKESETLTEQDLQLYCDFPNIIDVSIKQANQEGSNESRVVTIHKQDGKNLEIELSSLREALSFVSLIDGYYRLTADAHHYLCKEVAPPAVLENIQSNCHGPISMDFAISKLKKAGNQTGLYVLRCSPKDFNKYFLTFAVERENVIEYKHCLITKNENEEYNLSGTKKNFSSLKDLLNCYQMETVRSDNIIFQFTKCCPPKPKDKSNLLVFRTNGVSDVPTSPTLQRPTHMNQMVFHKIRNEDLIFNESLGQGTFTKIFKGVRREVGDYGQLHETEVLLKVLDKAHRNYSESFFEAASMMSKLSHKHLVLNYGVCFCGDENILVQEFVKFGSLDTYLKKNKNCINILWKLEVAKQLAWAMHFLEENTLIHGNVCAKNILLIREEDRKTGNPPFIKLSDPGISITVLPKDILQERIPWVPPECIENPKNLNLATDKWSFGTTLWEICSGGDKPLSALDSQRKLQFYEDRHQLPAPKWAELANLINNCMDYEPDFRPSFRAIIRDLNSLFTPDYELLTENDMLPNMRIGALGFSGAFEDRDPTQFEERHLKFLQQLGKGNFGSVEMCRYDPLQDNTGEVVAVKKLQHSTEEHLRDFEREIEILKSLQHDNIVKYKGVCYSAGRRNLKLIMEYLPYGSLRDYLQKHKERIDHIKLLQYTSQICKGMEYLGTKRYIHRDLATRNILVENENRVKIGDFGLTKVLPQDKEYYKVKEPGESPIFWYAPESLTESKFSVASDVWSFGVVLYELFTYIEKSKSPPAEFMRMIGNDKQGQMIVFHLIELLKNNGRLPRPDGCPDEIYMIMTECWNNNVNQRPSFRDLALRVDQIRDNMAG
T3 sequence (Q07912 whole entry): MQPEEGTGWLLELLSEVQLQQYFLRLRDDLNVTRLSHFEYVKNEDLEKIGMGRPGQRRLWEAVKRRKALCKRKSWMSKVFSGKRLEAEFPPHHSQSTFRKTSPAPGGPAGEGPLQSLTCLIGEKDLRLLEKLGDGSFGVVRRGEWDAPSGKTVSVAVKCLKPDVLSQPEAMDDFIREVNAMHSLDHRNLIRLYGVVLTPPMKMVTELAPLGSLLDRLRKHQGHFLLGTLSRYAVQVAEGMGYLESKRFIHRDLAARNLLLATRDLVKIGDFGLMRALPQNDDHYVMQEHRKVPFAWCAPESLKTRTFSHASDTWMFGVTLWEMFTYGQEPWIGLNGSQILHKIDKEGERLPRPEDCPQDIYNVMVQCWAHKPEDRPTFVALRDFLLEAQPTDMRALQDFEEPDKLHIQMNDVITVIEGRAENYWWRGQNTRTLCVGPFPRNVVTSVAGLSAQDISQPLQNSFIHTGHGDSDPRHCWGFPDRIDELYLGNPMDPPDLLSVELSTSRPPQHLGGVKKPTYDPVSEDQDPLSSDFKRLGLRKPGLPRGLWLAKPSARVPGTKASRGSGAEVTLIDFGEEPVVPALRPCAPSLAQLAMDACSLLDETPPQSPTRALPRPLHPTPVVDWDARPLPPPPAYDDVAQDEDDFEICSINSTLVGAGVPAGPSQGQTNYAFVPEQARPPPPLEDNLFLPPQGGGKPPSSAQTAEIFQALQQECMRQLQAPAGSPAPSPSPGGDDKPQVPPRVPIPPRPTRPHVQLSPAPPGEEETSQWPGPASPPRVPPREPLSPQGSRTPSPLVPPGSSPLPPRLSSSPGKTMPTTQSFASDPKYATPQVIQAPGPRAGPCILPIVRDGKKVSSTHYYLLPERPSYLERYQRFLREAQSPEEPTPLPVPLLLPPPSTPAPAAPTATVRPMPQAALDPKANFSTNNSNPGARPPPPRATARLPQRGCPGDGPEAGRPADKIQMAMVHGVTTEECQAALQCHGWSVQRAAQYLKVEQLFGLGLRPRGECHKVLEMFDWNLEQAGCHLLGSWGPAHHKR

Take `Clc1cnc(Nc2ccc(OCCN3CCCC3)cc2)nc1NCc1ccco1` [Compound 5, 5-chloro-4-(furan-2-yl)methylamino-2-[4-{2-(pyrrolidin-1-yl)ethoxy}phenylamino]pyrimidine]: the IC50 in data set [1] was 2.87 nM; in data set [2], above 100 µM; in data set [3] (concentrations 0.01, 0.1, 1, 2, 5, 10, 20, 50 μM) it was 15200 nM; in data set [4] it was 25.6 nM; in data set [5], 51.3 nM. Besides, the “hERG K+ channel binding as indicator of toxicity in the heart, conclusion” value in data set [3] is “stable in the heart”. Further, the concentration for 50% growth inhibition (GI50) in data set [6] was 1820 nM; in data set [7], 42 nM.

In general, IC50 refers to the midpoint of a concentration-inhibition curve. Read a high IC50 as weaker potency. As usually defined, the GI50 is the concentration giving 50% growth inhibition.
